The subject of the test is M. tuberculosis H37Rv growth inhibition. Description: M. tuberculosis H37Rv growth inhibitors, H37Rv strain (AID 1626). Particulars: for IC90: measured here: IC90 against H37Rv; for CC50: measured here: Vero cell cytotoxicity.

As to `Nc1nc(-c2cccc(Br)c2)cs1`, the IC50 (as a rule, the concentration needed to halve the response being measured) was 23.8 µM and the concentration for an effect of 90% (IC90) (usually the concentration needed for an effect of 90%) is over 100 µM.
Take `CCCOC(=O)c1ccc(NC(=O)C(=O)NCC2CCCO2)cc1` (stereo unspecified): the IC50 is 38.7 µM and the IC90 was over 100 µM.
The corresponding values for `COC(=O)CSc1ccnc2cc(Cl)ccc12` are 4.25 µM and 12.3 µM.
Regarding `Cn1c(=O)[nH]c(=O)c2c1nc(N1CCCCC1)n2CCCSc1nc2ccccc2s1`, the CC50 – broadly, the concentration that lowers cell viability or growth by half – is over 40 µM.
`COc1ccccc1-c1nc(-c2ccccc2)nc(N2CCN(C)CC2)c1C#N`: the IC50 was 16.5 µM, the IC90 is 22 µM and the CC50 is over 40 µM.
Regarding `CN1CCN(c2nc(-c3ccccc3)nc(-c3ccc(F)cc3)c2C#N)CC1`, the IC50 was 23.9 µM, the IC90 is over 100 µM and the CC50 is over 40 µM.
For the molecule `CC(C)c1ccc(C2C3=C(CC(C)(C)CC3=O)NC3=C2C(=O)c2ccccc23)cc1` (stereo unspecified), the IC50 was 50.6 µM, the IC90 is over 100 µM and the CC50 is over 40 µM.
In the case of `COc1c(Cl)cc(Cl)cc1/C=C/C(=O)c1ccc(NC(=O)c2cccs2)cc1`, the IC50 was 7.91 µM, the IC90 was determined as 16.4 µM and the CC50 worked out at 6.47 µM.
Turning to `O=C(OCc1nc2ccccc2s1)c1ccco1`, the IC50 was 32.7 µM and the IC90 is over 100 µM.
As to `CCOc1cc(CNC(C)(C)CO)cc(Br)c1OCc1ccc(Cl)cc1Cl`, the IC50 is 11.4 µM, the 90% effect concentration (IC90) is 12.3 µM and the CC50 came out at 12.7 µM.
Consider `CCOC(=O)COc1cc2c3c(c(=O)oc2cc1C)CCCC3`, for which the IC50 was 1.59 µM and the IC90 amounted to 10.4 µM.
As for `Cc1ccc(Nc2ccccc2N)cc1`, the IC50 was 1.46 µM and the IC90 worked out at 1.66 µM.
Turning to `CCn1nnc(NC(=O)c2ccc(-c3ccc(Cl)cc3)o2)n1`, the IC50 is 19.8 µM and the IC90 was over 100 µM.
On to `Cc1ccc(-c2nnc3sc(CCc4ccccc4)nn23)cc1`, for which the half-inhibitory concentration (IC50) was 1.63 µM and the IC90 is 6.83 µM.
For the molecule `C=C(C)C1Cc2c(C)nn(-c3nc(C)cc(C)n3)c2C1` (stereo unspecified), the concentration for half-maximal inhibition (IC50) is 10.1 µM, the IC90 was over 100 µM and the CC50 is over 40 µM.
As for `Cc1cc(N2CCC(C)CC2)nc(-n2nc(C)cc2C)n1`, the IC50 was 3.18 µM, the 90% effect concentration (IC90) was over 100 µM and the 50% cytotoxic concentration (CC50) was 16.5 µM.
Consider `CC1CC(C)CN(C(=O)/C=C/c2ccc([N+](=O)[O-])s2)C1` (stereo unspecified), for which the IC50 is 10.2 µM, the IC90 was found to be 13.3 µM and the CC50 was 37.4 µM.
Take `CCSCc1nnc(SCC(=O)Nc2cccc(SC)c2)n1C`: the IC50 was 43.5 µM and the IC90 was over 100 µM.
`Cc1cccc(N2CCN(C(=O)c3ccc(CNc4c(N5CCC(C)CC5)c(=O)c4=O)cc3)CC2C)c1` (stereo unspecified): the IC50 was 15.8 µM, the IC90 was 22.2 µM and the CC50 is over 40 µM.
`CCCSc1ccc(C(=O)Nc2ccc(Cl)cc2)cn1`: the IC50 was 27.9 µM and the IC90 is over 100 µM.
`CCOC(=O)c1sc(NC(=O)CSc2ncn[nH]2)c(C#N)c1C` returned a CC50 of over 40 µM.
`COc1ccc(N2CCN(c3nc(-c4cccs4)nc4ccccc34)CC2)cc1` displayed an IC90 of over 100 µM.
Take `CCc1ccc(-c2nn(-c3ccccc3)cc2CSC(=N)N)cc1`: the IC50 was 6.73 µM, the IC90 was 10.7 µM and the CC50 came to 14 µM.
For the molecule `Cn1nc(C(F)(F)F)c2cc(NC(=O)OCC(C)(C)C)sc21`, the 50% inhibitory concentration (IC50) was 13.3 µM and the IC90 was over 100 µM.
Turning to `COc1ccc(NCc2ccc([N+](=O)[O-])s2)cc1`, the IC50 was 59.4 µM and the IC90 is over 100 µM.
Turning to `O=C(Nc1nnc(-c2ccco2)o1)c1ccc([N+](=O)[O-])s1`, the IC50 is 6.03 µM, the IC90 is 8.57 µM and the cytotoxic concentration (CC50) is 16.6 µM.
For the molecule `Nc1cnn(Cc2ccc(F)cc2)c1`, the IC90 was over 100 µM.
Turning to `CCOC(=O)CSc1ncnc2c1cnn2-c1ccccc1`, the IC50 is 1.37 µM and the IC90 came out at 14.6 µM.
For the molecule `COc1ccc(N2C(=O)C(F)(F)C2c2ccccc2F)cc1` (stereo unspecified), the half-inhibitory concentration (IC50) is 5.79 µM and the IC90 was 12.1 µM.
`O=c1[nH]c2ccccc2n1CCCN1CCN(C(c2ccccc2)c2ccccc2)CC1`: the IC50 was 17.1 µM, the IC90 was 25.3 µM and the CC50 was over 40 µM.
In the case of `CCOc1ccc(N=Cc2c(O)n(C(C)(C)C)c(=O)[nH]c2=O)cc1`, the IC50 is under 0.195 µM and the concentration for an effect of 90% (IC90) was over 100 µM.
For the molecule `CCc1ccc2c(c1)/C(=C/C(=O)c1cccs1)C(=O)N2`, the IC50 is 3.06 µM, the IC90 was determined as 12.2 µM and the 50% cytotoxic concentration (CC50) worked out at 18.9 µM.
In the case of `Cc1ccc2c(Cl)cc(Cl)c(OCC(=O)NC(C)(C)C)c2n1`, the IC50 was 11.6 µM, the IC90 was over 100 µM and the CC50 was over 40 µM.
With `CCOC(=O)Cc1ccc(NC(=O)c2ccc(C(C)(C)C)cc2)cc1`, the IC50 is 35.6 µM, the IC90 was over 100 µM and the 50% cytotoxic concentration (CC50) was over 40 µM.
Turning to `O=C(NC(Nc1nc2ccc([N+](=O)[O-])cc2s1)(C(F)(F)F)C(F)(F)F)c1ccccc1Cl`, the IC50 is 2.17 µM, the IC90 is 4.17 µM and the CC50 worked out at 1 µM.
Regarding `CCC1CCCCN1C(=O)COC(=O)c1cc2ccccc2cc1O` (stereo unspecified), the IC50 is 1.25 µM and the IC90 amounted to 4.34 µM.
Take `O=C(c1nnsc1S(=O)(=O)c1ccc(Cl)cc1)N1CCOCC1`: the IC50 was 7.98 µM, the IC90 worked out at 11.6 µM and the CC50 worked out at 11.3 µM.
Take `c1ccc(CN2CCN(c3nc(-c4ccccc4)nc(-n4ccnc4)n3)CC2)cc1`: the IC50 is 1.5 µM, the IC90 worked out at 2.2 µM and the half-maximal cytotoxic concentration (CC50) was over 40 µM.
As to `COc1ccc(Br)cc1C(C[N+](=O)[O-])c1c(N)n(C)c(=O)n(C)c1=O` (stereo unspecified), the IC50 was 8.08 µM, the IC90 was 12.5 µM and the CC50 came to 9.3 µM.
As for `O=c1[nH]c(CN2CCCCC2)nc2c1C1(CCCCC1)Cc1ccccc1-2`, the IC50 is 4.01 µM and the IC90 was over 100 µM.
Consider `O=C(Nc1ccc(-n2nncc2-c2ccco2)cc1)c1cc2ccccc2oc1=O`, for which the IC50 was 1.96 µM, the IC90 was found to be 6.68 µM and the CC50 was 19.7 µM.
As to `O=C(c1ccc(COc2ccc(Cl)cc2)o1)N1CCN(Cc2ccc3c(c2)OCO3)CC1`, the IC50 was 10.8 µM, the IC90 is 21.9 µM and the CC50 is over 40 µM.
Take `O=C(CSCc1nc2ccccc2[nH]1)Nc1ccc(Oc2ccccc2)cc1`: the IC50 is 22.9 µM, the 90% effect concentration (IC90) was over 100 µM and the CC50 was over 40 µM.
For `CC(=O)Nc1nc2ccccc2n1Cc1ccccc1Cl` the same measures were under 0.195 µM, over 100 µM and 16.3 µM.
For `CCCOc1ccc(-c2nc(C#N)c(NCCCn3ccnc3)o2)cc1` the same measures were 15 µM, over 100 µM and over 40 µM.
With `c1ccc(OCCOCCN2CCN(C(c3ccccc3)c3ccccc3)CC2)cc1`, the IC50 is 11.7 µM, the IC90 was 13.5 µM and the CC50 was over 40 µM.
With `CCOc1ccc(NC(=O)CCSc2ccc3ccccc3n2)cc1`, the IC50 was 6.54 µM and the IC90 was over 100 µM.
On to `COc1ccc(N=C2NN=C(c3c(C)[nH]c4ccccc34)CS2)cc1`, for which the IC50 is 39 µM, the IC90 is over 100 µM and the CC50 turned out to be 29.6 µM.
Regarding `N#CC1=C(S)N(c2ccccc2)C(c2ccc(-c3ccc(Cl)c(Cl)c3)o2)NC1=O` (stereo unspecified), the IC50 is 41 µM and the concentration for an effect of 90% (IC90) is over 100 µM.
As for `COc1ccc(N=CC2=C(O)CCCC2=O)cc1`, the IC50 is 45 µM and the IC90 is over 100 µM.
With `CCOC(=O)CSc1nc(N)c(C#N)c(-c2ccc(OCC)cc2)c1C#N`, the IC50 is 0.472 µM and the IC90 was determined as 1.32 µM.
As to `Cc1cccc(Cc2cnc(N3C(=N)SC(c4ccccc4)C3=O)s2)c1` (stereo unspecified), the concentration for half-maximal inhibition (IC50) was 8.81 µM, the 90% effect concentration (IC90) is over 100 µM and the CC50 was found to be 36.8 µM.
Take `CC(=O)c1ccc(NC(=O)COC(=O)c2c3c(nc4ccccc24)/C(=C\c2cccs2)CCC3)cc1`: the IC50 is 0.449 µM, the IC90 was over 100 µM and the CC50 was found to be 13.6 µM.
As to `N=C1SCC(=O)N1c1ncc(Cc2cccc(Cl)c2)s1`, the IC50 is under 0.195 µM, the IC90 worked out at 4.92 µM and the CC50 is over 40 µM.
`CCNc1nc(NC(C)(C)C)nc(N2CCCCC2)n1`: the IC50 was 16 µM, the IC90 amounted to 29.5 µM and the CC50 was over 40 µM.
The corresponding values for `Cc1ccc(CNC(=O)c2ccc([N+](=O)[O-])o2)cc1` are under 0.391 µM, 2.89 µM and 8.28 µM.
For `CC(=O)Nc1nc2ccccc2n1Cc1ccccc1C` the same measures were 0.2 µM, 81 µM and 22.5 µM.
In the case of `O=C(Nc1nc(-c2ccccn2)cs1)c1cc2ccccc2o1`, the IC50 is 2.62 µM, the IC90 is 42.6 µM and the CC50 was over 40 µM.
Turning to `CCOC(=O)c1ccc(-n2c(CCC(=O)O)ccc2-c2cccs2)cc1`, the IC90 was over 100 µM.
As for `O=C(Cc1ccc([N+](=O)[O-])cc1)Nc1cc(C(F)(F)F)cc(C(F)(F)F)c1`, the IC50 was 0.369 µM, the 90% effect concentration (IC90) was over 100 µM and the cytotoxic concentration (CC50) amounted to 20.8 µM.
`CCc1sc(N)nc1-c1ccccc1` registered an IC90 of over 100 µM.
Consider `COc1ccc(NC(=O)NC(C)C2CC3CCC2C3)cc1` (stereo unspecified), for which the IC50 is 7.4 µM, the IC90 was over 100 µM and the cytotoxic concentration (CC50) is over 40 µM.
`OC(COC(c1ccc(Cl)cc1)c1ccc(Cl)cc1)CN1CCN(c2ccccn2)CC1` (stereo unspecified): the IC50 is 9.79 µM, the IC90 came out at 28.3 µM and the CC50 turned out to be 35.3 µM.
Turning to `CCOC(=O)COc1cc(OCC(=O)OCC)c2c(=O)cc(-c3ccccc3)oc2c1`, the concentration for half-maximal inhibition (IC50) was 1.37 µM and the IC90 was found to be 3.74 µM.
For `CC(=O)Nc1nc(NC(=O)/C=C/c2ccccc2)n(-c2ccccc2)n1`, the half-inhibitory concentration (IC50) was 3.63 µM, the IC90 came to 8.76 µM and the CC50 is 27.7 µM.

Source of the values: PubChem BioAssay AID1626 (SRMLSC, 2009).
